Laboratory results reported in the supplement of paper PMC10883282.

Tests used:
Experiment in all cases: standardised AUC of viability dose-response curve (72 h) (fraction (0-1)); higher = less growth inhibition (more resistant)
SW684 = tested on: SW684
Method in brief: (§1)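 In 384-well plates, sarcoma cell lines were exposed for 72 h, in triplicate, to 2.5 µl of a 1:3 compound dilution series whose compound-plate concentrations ran from 10 mM to 0.0002 mM. Four-parameter log-logistic models were fitted per drug and cell line to ATPLite viability, scaled 1 (full) to 0 (none). From these fits, a modified drexplorer computeAUC gave the standardised area under the curve in log-dose space. Here 1 marks no response and 0 full response.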

KHOS-240S = tested on: KHOS-240S
Method in brief: as §1

VA-ES-BJ = tested on: VA-ES-BJ
Method in brief: as §1

SW982 = tested on: SW982
Method in brief: as §1

HT1080 = tested on: HT1080
Method in brief: as §1

MES-SA = tested on: MES-SA
Method in brief: as §1

SW1353 = tested on: SW1353
Method in brief: as §1

SYO-1 = tested on: SYO-1
Method in brief: as §1

SW872 = tested on: SW872
Method in brief: as §1

A204 = tested on: A204
Method in brief: as §1

RD = tested on: RD
Method in brief: as §1

RD-ES = tested on: RD-ES
Method in brief: as §1

G401 = tested on: G401
Method in brief: as §1

SK-ES-1 = tested on: SK-ES-1
Method in brief: as §1

HS729 = tested on: HS729
Method in brief: as §1

SK-LMS-1 = tested on: SK-LMS-1
Method in brief: as §1

KHOS-NP = tested on: KHOS-NP
Method in brief: as §1

| SMILES | standardised AUC (SW684) | standardised AUC (KHOS-240S) | standardised AUC (VA-ES-BJ) | standardised AUC (SW982) | standardised AUC (HT1080) | standardised AUC (MES-SA) | standardised AUC (SW1353) | standardised AUC (SYO-1) | standardised AUC (SW872) | standardised AUC (A204) | standardised AUC (RD) | standardised AUC (RD-ES) | standardised AUC (G401) | standardised AUC (SK-ES-1) | standardised AUC (HS729) | standardised AUC (SK-LMS-1) | standardised AUC (KHOS-NP) |
| --- | --- | --- | --- | --- | --- | --- | --- | --- | --- | --- | --- | --- | --- | --- | --- | --- | --- |
| CC#CC(=O)N1CCC[C@H]1c1nc(-c2ccc(C(=O)Nc3ccccn3)cc2)c2c(N)nccn12 [ACALABRUTINIB] | 0.996 | 0.986 | 1 | 0.98 | 0.998 | 0.996 | 0.963 | 0.989 | 0.992 | 0.985 | 0.976 | 0.998 | 0.992 | 0.993 | 0.995 | 0.996 | 1 |
| N#CC1(c2ccc(NC(=O)c3cccnc3NCc3ccncc3)cc2)CCCC1 [APATINIB] | 0.987 | 0.966 | 1 | 0.998 | 0.991 | 0.972 | 0.965 | 0.893 | 0.98 | 0.821 | 0.996 | 0.98 | 0.956 | 0.988 | 0.942 | 0.982 | 0.968 |
| O=C(Nc1ccc(OC(F)(F)Cl)cc1)c1cnc(N2CC[C@@H](O)C2)c(-c2cc[nH]n2)c1 [ASCIMINIB] | 0.987 | 0.983 | 0.996 | 0.987 | 0.969 | 0.975 | 1 | 0.94 | 0.997 | 0.947 | 0.994 | 0.965 | 0.989 | 0.979 | 0.985 | 0.957 | 0.962 |
| CNC(=O)c1ccccc1Sc1ccc2c(/C=C/c3ccccn3)n[nH]c2c1 [AXITINIB] | 0.954 | 0.849 | 0.901 | 0.887 | 0.963 | 0.857 | 0.928 | 0.669 | 0.859 | 0.545 | 0.89 | 0.926 | 0.857 | 0.863 | 0.826 | 0.975 | 0.93 |
| Cc1cc2c(F)c(Oc3ncnn4cc(OC[C@@H](C)O)c(C)c34)ccc2[nH]1 [BRIVANIB] | 1 | 0.996 | 1 | 0.995 | 0.996 | 0.985 | 0.999 | 0.955 | 1 | 0.973 | 0.991 | 0.996 | 0.994 | 0.987 | 0.989 | 0.985 | 0.995 |
| CO[C@H]1C[C@@H]2CC[C@@H](C)[C@@](O)(O2)C(=O)C(=O)N2CCCC[C@H]2C(=O)O[C@H]([C@H](C)C[C@@H]2CC[C@@H](OCCO)[C@H](OC)C2)CC(=O)[C@H](C)/C=C(\C)[C@@H](O)[C@@H](OC)C(=O)[C@H](C)C[C@H](C)/C=C/C=C/C=C/1C [CERTICAN] | 0.841 | 0.819 | 0.604 | 0.728 | 0.962 | 0.548 | 0.835 | 0.885 | 0.688 | 0.633 | 0.765 | 0.76 | 0.849 | 0.684 | 0.926 | 0.645 | 0.971 |
| CC1(COc2ccc3c(c2)ncn3-c2ccc3cccc(N4CCC(N)CC4)c3n2)COC1 [CRENOLANIB] | 0.969 | 0.887 | 0.891 | 0.853 | 0.93 | 0.903 | 0.917 | 0.804 | 0.93 | 0.653 | 0.942 | 0.898 | 0.956 | 0.823 | 0.994 | 0.931 | 0.886 |
| CC(C)(C)c1nc(-c2cccc(NS(=O)(=O)c3c(F)cccc3F)c2F)c(-c2ccnc(N)n2)s1 [DABRAFENIB] | 0.97 | 0.96 | 0.876 | 0.723 | 0.924 | 0.866 | 0.925 | 0.946 | 0.586 | 0.881 | 0.941 | 0.854 | 0.921 | 0.812 | 0.853 | 0.779 | 0.863 |
| CCc1cnn2c(NCc3ccc[n+]([O-])c3)cc(N3CCCC[C@H]3CCO)nc12 [DINACICLIB] | 0.798 | 0.51 | 0.498 | 0.546 | 0.525 | 0.398 | 0.551 | 0.519 | 0.6 | 0.497 | 0.484 | 0.419 | 0.439 | 0.378 | 0.64 | 0.598 | 0.509 |
| C[C@H](Nc1ncnc2nc[nH]c12)c1cc2cccc(Cl)c2c(=O)n1-c1ccccc1 [DUVELISIB] | 0.666 | 0.946 | 0.884 | 0.915 | 0.996 | 0.901 | 0.879 | 0.921 | 0.869 | 0.864 | 0.941 | 0.915 | 0.912 | 0.917 | 0.902 | 0.834 | 0.985 |
| CC1(C)CC=C(c2nc(C3CC(C)(C)OC(C)(C)C3)ccc2NC(=O)c2nc(C#N)c[nH]2)CC1 [EDICOTINIB] | 1 | 0.987 | 0.991 | 1 | 0.984 | 0.971 | 1 | 1 | 1 | 0.985 | 0.984 | 0.994 | 0.987 | 0.976 | 0.931 | 0.99 | 0.994 |
| CC(C)(O)CNc1nc(Nc2ccnc(C(F)(F)F)c2)nc(-c2cccc(C(F)(F)F)n2)n1 [ENASIDENIB] | 0.973 | 0.995 | 0.991 | 1 | 0.999 | 0.99 | 0.99 | 0.958 | 0.998 | 0.972 | 0.984 | 0.992 | 0.992 | 0.945 | 0.997 | 0.998 | 0.981 |
| COC(=O)N[C@@H](C)CNc1nccc(-c2cn(C(C)C)nc2-c2cc(Cl)cc(NS(C)(=O)=O)c2F)n1 [ENCORAFENIB] | 0.961 | 0.956 | 0.923 | 0.818 | 0.933 | 0.9 | 0.941 | 0.977 | 0.665 | 0.922 | 0.896 | 0.903 | 0.922 | 0.843 | 0.925 | 0.887 | 0.903 |
| CN1CCN(c2ccc(C(=O)Nc3n[nH]c4ccc(Cc5cc(F)cc(F)c5)cc34)c(NC3CCOCC3)c2)CC1 [ENTRECTINIB] | 0.927 | 0.901 | 0.957 | 0.885 | 0.957 | 0.933 | 0.924 | 0.868 | 0.893 | 0.944 | 0.888 | 0.88 | 0.904 | 0.87 | 0.915 | 0.928 | 0.973 |
| Cn1cc(C2=C(c3cn(C4CCN(Cc5ccccn5)CC4)c4ccccc34)C(=O)NC2=O)c2ccccc21 [ENZASTAURIN] | 0.961 | 0.978 | 1 | 0.961 | 1 | 0.988 | 0.943 | 0.965 | 0.973 | 0.979 | 0.995 | 1 | 1 | 0.986 | 0.995 | 0.953 | 0.992 |
| O=S(=O)(c1cccc2cnccc12)N1CCCNCC1 [FASUDIL] | 0.978 | 0.982 | 0.996 | 0.991 | 0.997 | 0.993 | 0.981 | 0.997 | 0.992 | 0.981 | 1 | 1 | 1 | 1 | 0.982 | 0.986 | 0.994 |
| O=C(Nc1nc2cccc(-c3ccc(CN4CCS(=O)(=O)CC4)cc3)n2n1)C1CC1 [FILGOTINIB] | 0.994 | 0.991 | 0.96 | 0.993 | 0.991 | 0.987 | 0.949 | 0.892 | 0.979 | 0.985 | 0.985 | 0.998 | 0.993 | 0.981 | 0.906 | 0.987 | 0.991 |
| COc1cc(Nc2ncc(F)c(Nc3ccc4c(n3)N(COP(=O)(O)O)C(=O)C(C)(C)O4)n2)cc(OC)c1OC [FOSTAMATINIB] | 0.886 | 0.798 | 0.845 | 0.755 | 0.968 | 0.885 | 0.819 | 0.779 | 0.803 | 0.774 | 0.906 | 0.857 | 0.842 | 0.757 | 0.871 | 0.854 | 0.911 |
| Cc1cccc(-c2nn3c(c2-c2ccnc4ccc(C(N)=O)cc24)CCC3)n1 [GALUNISERTIB] | 0.992 | 0.955 | 1 | 0.992 | 0.982 | 0.969 | 0.976 | 0.853 | 0.962 | 0.976 | 0.998 | 0.972 | 0.993 | 0.968 | 0.91 | 0.974 | 0.956 |
| CN1CC[C@@H](NC(=O)Nc2ccc(C#N)cc2)C[C@@H]1c1nc2ccccc2[nH]1 [GLASDEGIB] | 0.99 | 0.991 | 0.984 | 0.991 | 0.988 | 0.976 | 0.988 | 0.976 | 0.988 | 0.982 | 0.987 | 0.959 | 0.976 | 0.953 | 0.985 | 0.982 | 0.992 |
| CC(C)NC[C@@H](C(=O)N1CCN(c2ncnc3c2[C@H](C)C[C@H]3O)CC1)c1ccc(Cl)cc1 [IPATASERTIB] | 0.848 | 0.921 | 0.769 | 0.916 | 0.969 | 0.781 | 0.891 | 0.791 | 0.805 | 0.843 | 0.898 | 0.848 | 0.836 | 0.851 | 0.817 | 0.885 | 0.954 |
